Experimental data as given in BigSolDB 2.1.

O=C(O)c1ccco1
Details | solubility (mole fraction)
in acetone, 280.15 K | 0.153
in acetone, 283.25 K | 0.159
in acetone, 288.55 K | 0.172
in acetone, 293.25 K | 0.189
in acetone, 299.15 K | 0.206
in acetone, 302.95 K | 0.218
in acetone, 308.45 K | 0.237
in acetone, 315.75 K | 0.265
in ethanol, 279.35 K | 0.152
in ethanol, 282.75 K | 0.162
in ethanol, 287.35 K | 0.176
in ethanol, 294.55 K | 0.198
in ethanol, 297.65 K | 0.208
in ethanol, 303.05 K | 0.225
in ethanol, 310.15 K | 0.25
in ethanol, 313.75 K | 0.268
in ethanol, 320.75 K | 0.29
in ethanol, 325.75 K | 0.311
in ethyl acetate, 281.35 K | 0.0858
in ethyl acetate, 287.05 K | 0.0983
in ethyl acetate, 291.95 K | 0.11
in ethyl acetate, 296.55 K | 0.124
in ethyl acetate, 301.25 K | 0.137
in ethyl acetate, 305.15 K | 0.147
in ethyl acetate, 307.45 K | 0.157
in ethyl acetate, 312.15 K | 0.171
in ethyl acetate, 316.35 K | 0.191
in ethyl acetate, 322.35 K | 0.216
in methyl acetate, 280.85 K | 0.106
in methyl acetate, 284.15 K | 0.117
in methyl acetate, 287.75 K | 0.127
in methyl acetate, 291.65 K | 0.137
in methyl acetate, 295.05 K | 0.146
in methyl acetate, 298.75 K | 0.156
in methyl acetate, 302.35 K | 0.166
in methyl acetate, 308.25 K | 0.184
in methyl acetate, 316.35 K | 0.216
in methyl acetate, 319.35 K | 0.232
in n-propanol, 282.95 K | 0.138
in n-propanol, 288.35 K | 0.158
in n-propanol, 293.75 K | 0.176
in n-propanol, 297.55 K | 0.195
in n-propanol, 303.15 K | 0.208
in n-propanol, 307.65 K | 0.226
in n-propanol, 312.55 K | 0.244
in n-propanol, 315.45 K | 0.258
in n-propanol, 319.75 K | 0.273
in n-propanol, 326.15 K | 0.3
in water, 284.85 K | 0.0032
in water, 295.25 K | 0.0064
in water, 299.45 K | 0.0079
in water, 304.65 K | 0.0095
in water, 310.65 K | 0.0127
in water, 313.25 K | 0.0156
in water, 316.85 K | 0.0184
in water, 319.45 K | 0.022
in water, 321.95 K | 0.0282
in water, 324.75 K | 0.0342
